Experiments:
rats with MCA occlusion = assay: Infarct volume after transient MCA occlusion; format: in vivo, rat; details: 24 h
Procedure: Adult male Wistar rats (200-250 g) were anesthetized with 2% halothane in O2 gas. The right external carotid artery (ECA) was carefully dissected. A silicon-coated suture (18 mm-long) was inserted from the lumen of the ECA to the right internal carotid artery (ICA) to occlude the origin of the right middle cerebral artery (MCA). Body temperature was maintained at 37° C. with a heating pad. […] One hour after MCA occlusion, the thread was removed to allow reperfusion of the ischemic area.
To measure infarct volume, rats were killed after 24 hours of reperfusion following transient occlusion of the MCA. Brains were flushed transcardially with physiological saline, removed from the skull, and cut into 2-mm coronal sections. The slices were immersed in 2% triphenyltetrazolium chloride (TTC) solution at 37° C. for 30 minutes.
All values were presented as mean±SEM. For statistical analysis, Dunnett's multiple-range test was used.

rats with SAH = assay: Effect on rCBF when given after SAH has been established; format: in vivo, rat; details: 1 mg/kg i.v. 30 min after induction of SAH
Procedure: Animals. Experiments were performed on male Sprague-Dawley rats (9-12 weeks old), purchased from Harlan Sprague-Dawley, Inc. (Indianapolis, Ind.). The rats were housed in an Animal Care Facility at the Medical College of Wisconsin, which is approved by the American Association for the Accreditation of Laboratory Animal Care. All protocols involving animals received approval by the Animal Care Committee of the Medical College of Wisconsin.
Surgical preparation. Rats were anesthetized with ketamine (Ketaject® 20 mg/kg i.m.) and thiobutabarbital sodium (Inactin® 50 mg/kg i.p.). […] Endtidal partial pressure of carbon dioxide (pCO2) was controlled at 38 mmHg by adjusting the minute ventilation according to the reading of an CO2 analyzer (Capstar-100 IITC, Inc., Woodland Hills, Calif.). Blood samples were collected at the beginning and end of the experiment and analyzed using a blood gas analyzer (ABL 300, Radiometer, Copenhagen, Denmark) to validate the endtidal pCO2 readings. […]
Cerebral blood flow (CBF) was continuously measured using laser Doppler flowmetry through a thinned cranial window. […] A PF 103 laser Doppler flow (LDF) probe was positioned over the cranial window and CBF was monitored using a PF-3 laser Doppler flowmeter (Perimed, Stockholm, Sweden).
0.3 ml of blood was injected into the Cistema Magna of rats to induce SAH. […] The CBF data are expressed as percentage change from control.

canine neutrophils = assay: Formation of 20-HETE by canine neutrophils; format: cell-based; details: Canis lupus familiaris, Neutrophil, read-out: IC50, formation of 20-HETE by canine neutrophils; 2×10^7 cells in dog CSF, 2 hours, n=4
Procedure: Experiments were performed to determine the cell type in canine blood responsible for the formation of 20-HETE. Experiments were performed using 4 male Beagle dogs. The dogs were anesthetized with sodium pentobarbital (30 mg/kg, i.v.). Venous blood sample was drawn and immediately mixed with 1:9 volume of trisodium citrate (3.8%) as an anticoagulant. Neutrophils were prepared to 98% purity using a percoll gradient technique. CSF was drawn from the Cistema Magna by using a 20 gauge needle. Only clear CSF sample without blood was used for the present experiment. The CSF was oxygenated with mixed gas (95% O2, 5% CO2) for 30 min. Neutrophils were suspended in the oxygenated CSF and cell numbers were adjusted to 2×10^6, 6.3×10^6, and 2×10^7. Whole blood (20 μl), red blood cells (20 μl) or neutrophils were incubated in the oxygenated CSF (180 μl) including 1 mM NADPH and [^3H]-AA at 37° C. for 2 hrs. The reaction was terminated by the addition of formic acid. One hundred percent acetonitrile (200 μl) was added to the reaction buffer to adjust final concentration to 50% for HPLC separation. […] The labeled products formed were monitored using a radioactive flow detector (raytest GmbH, Straubenhardt, Germany).
The reactions were terminated by addition of formic acid. […] The labeled metabolites were monitored using a radioactive flow detector ramona 93 (raytest GmbH, Straubenhardt, Germany).

For `CCCCc1ccc(N=CNO)c(C)c1` [HET0016, N-hydroxy-N′-(4-butyl-2-methylphenyl)-formamidine], which infarct volume (rats with MCA occlusion; 0.1 mg/kg i.v. just after reperfusion, n=10) is on record?
The infarct volume was 10.7±2.6%.

And the infarct volume (rats with MCA occlusion; 1 mg/kg i.v. just after reperfusion, n=17)?
Its infarct volume is 9.7±2.1%.

And the “time after treatment at which cerebral blood flow was back to the control value” (rats with SAH)?
Its value is 70 min.

What about the IC50 (canine neutrophils) of the same compound?
The IC50 was 10.2 ± 1.3 nM.

Reference: patent publication US7307101B2, “Use of 20-HETE synthesizing enzyme inhibitors as therapy for cerebral vascular disease” (MCW Research Foundation, Inc., priority 2000, dated 2007)
